Reference: patent US11957684B2, “Treatment of heavy menstrual bleeding associated with uterine fibroids” (Sumitomo Pharma Switzerland GmbH, priority 2016, dated 2024)
Where “and” joins values, the source holds several entries; their conditions need not be identical. Identical values can stand only once. Like-named read-outs stand apart in the source and are kept apart here.

Columns and labels:
[1] = system: endometriosis-associated pain; format: in vivo, human
Protocol: Subjects assessed and recorded their own quality of life (QOL) using the EHP-30 once a month during the study visit. As used in the examples, the VAS score was evaluated using a 100 mm scale. For pain intensity, the scale was anchored by “no pain” (score of 0) and “pain as bad as you can imagine” (score of 100). […] The above items were evaluated using a patient diary that was distributed by the sponsor. Subjects filled out the patient diary every day during the treatment period or until early termination. If taking prohibited analgesics, subjects recorded this fact in the patient diary along with the accompanying pain symptoms before use of analgesics. As used in the examples, pain during menstruation and pelvic pain unrelated to menstruation were evaluated using scores on the M-B&B and B&B. The M-B&B scores were recorded by subjects on the patient diary supplied by the sponsor. Subjects filled out the patient diary every day during the treatment period or until early termination. If taking prohibited analgesics, subjects recorded this fact in the patient diary along with the accompanying pain symptoms before use of analgesics. The investigator or subinvestigator assessed each patient's pain through interviews and filled out a B&B once a month. The items that were assessed are shown below. The M-B&B score included: dysmenorrhea (severe, moderate, mild, no pain, or no menstruation); pelvic pain (severe, moderate, mild, or no pain); deep dyspareunia (severe, moderate, mild, no pain, or no intercourse). The B&B score included: dysmenorrhea (severe, moderate, mild, none, or not applicable); dyspareunia (severe, moderate, mild, none, or not applicable); pelvic pain (severe, moderate, mild, or none); pelvic tenderness (severe, moderate, mild, or none); and induration (severe, moderate, mild, or none). As used in the examples, the EHP-30 score was obtained by subjects assessing and recording their own QOL using the EHP-30 questionnaire.

FIG. 6C = assay: FIG. 6C
Protocol: Table printed on a drawing sheet, FIG. 6C
The patent's description of the figure: FIGS. 6A-C are tables of plasma PK parameters for Cohort 7 in accordance with Example 4.
First reader's note: Part of a plasma PK table series (FIGS. 6A-C) for Cohort 7; each column is a fed or fasted 40 mg arm.

[2] = 40 mg, end of 84 consecutive days

CONC(=O)Nc1ccc(-c2sc3c(c2CN(C)C)c(=O)n(-c2ccc(OC)nn2)c(=O)n3Cc2c(F)cccc2F)cc1 [Compound 1, N-(4-(1-(2,6-difluorobenzyl)-5-((dimethylamino)methyl)-3-(6-methoxy-3-pyridazinyl)-2,4-dioxo-1,2,3,4-tetrahydrothieno[2,3-d]pyrimidin-6-yl)phenyl)-N′-methoxyurea]
change from baseline in mean M-B&B score, deep dyspareunia ([1]; 20 mg, end of treatment): −0.210±0.4936
change from baseline in mean M-B&B score, dysmenorrhea ([1]; 20 mg, end of treatment): −0.795±0.6490
change from baseline in mean VAS, dysmenorrhea ([1]; 20 mg, end of treatment): −19.825±20.4332 mm
change from baseline in mean VAS, dyspareunia ([1]; 20 mg, end of treatment): −3.553±11.5544 mm
change from baseline in mean VAS, pelvic pain ([1]; 20 mg, end of treatment): −9.032 mm and −9.032±11.8432 mm
change from baseline in proportion of days with usage of pain killer ([1]; 20 mg, end of treatment): −7.36±14.585%
change in proportion of days without pain (M-B&B), deep dyspareunia ([1]; 20 mg, end of treatment): 18.04±47.892%
change in proportion of days without pain (M-B&B), dysmenorrhea ([1]; 20 mg, end of treatment): 50.92±41.641%
change in proportion of days without pain (M-B&B), pelvic pain ([1]; 20 mg, end of treatment): 17.75±30.339%
change in proportion of days without pain (VAS), dysmenorrhea ([1]; 20 mg, end of treatment): 50.91±42.602%
change in proportion of days without pain (VAS), dyspareunia ([1]; 20 mg, end of treatment): 15.14±47.793%
change in proportion of days without pain (VAS), pelvic pain ([1]; 20 mg, end of treatment): 21.50±28.859%
mean VAS score, dysmenorrhea ([1]; 20 mg, end of treatment): 7.878±14.2406 mm
mean VAS score, dyspareunia ([1]; 20 mg, end of treatment): 6.363±13.1847 mm
mean VAS score, pelvic pain ([1]; 20 mg, end of treatment): 6.557±11.2902 mm
subjects who achieved amenorrhea ([1]; 20 mg, end of treatment): 54.0%
subjects without pain in M-B&B score, dysmenorrhea ([1]; 20 mg, end of treatment): 61.0%
subjects without pain in M-B&B score, dyspareunia ([1]; 20 mg, end of treatment): 52.5%
subjects without pain in M-B&B score, pelvic pain ([1]; 20 mg, end of treatment): 34.0%
subjects without pain in VAS score, dysmenorrhea ([1]; 20 mg, end of treatment): 59.0%
subjects without pain in VAS score, dyspareunia ([1]; 20 mg, end of treatment): 47.5%
subjects without pain in VAS score, pelvic pain ([1]; 20 mg, end of treatment): 20%
change from baseline in pelvic pain, dysmenorrhea, and dyspareunia in mean VAS ([1]; 40 mg, 84 consecutive days): −10.418±11.0171 mm
change from baseline in mean VAS, dysmenorrhea ([1]; 40 mg, Day 1-28): −10.979±14.8545 mm
change from baseline in mean VAS, dyspareunia ([1]; 40 mg, Day 1-28): 2.995±9.7916 mm
change from baseline in mean VAS, pelvic pain ([1]; 40 mg, Day 1-28): −3.761±7.8831 mm
mean VAS score, dysmenorrhea ([1]; 40 mg, Day 1-28): 19.452±19.1065 mm
mean VAS score, dyspareunia ([1]; 40 mg, Day 1-28): 9.522±13.6408 mm
mean VAS score, pelvic pain ([1]; 40 mg, Day 1-28): 11.498±13.2341 mm
change from baseline in mean VAS, dysmenorrhea ([1]; 40 mg, Day 57-84): −30.094±17.2623 mm
change from baseline in mean VAS, dyspareunia ([1]; 40 mg, Day 57-84): −1.860±10.3161 mm
change from baseline in mean VAS, pelvic pain ([1]; 40 mg, Day 57-84): −10.537±11.0516 mm
mean VAS score, dysmenorrhea ([1]; 40 mg, Day 57-84): 0.569±2.5367 mm
mean VAS score, dyspareunia ([1]; 40 mg, Day 57-84): 4.126±7.9652 mm
mean VAS score, pelvic pain ([1]; 40 mg, Day 57-84): 4.785±8.9162 mm
change from baseline in mean VAS, dysmenorrhea ([1]; 40 mg, Day 141-168): −31.210±17.7668 mm
change from baseline in mean VAS, dyspareunia ([1]; 40 mg, Day 141-168): −0.830±13.6774 mm
mean VAS score, dysmenorrhea ([1]; 40 mg, Day 141-168): 0.430±2.3141 mm
mean VAS score, dyspareunia ([1]; 40 mg, Day 141-168): 3.531±9.6053 mm
mean VAS score, pelvic pain ([1]; 40 mg, Day 141-168): 2.979±6.1704 mm
change from baseline in EHP-30, Self-image ([1]; 40 mg, Week 24): −9.68±17.744
change from baseline in EHP-30, control & powerlessness ([1]; 40 mg, Week 24): −20.88±21.676
change from baseline in EHP-30, emotional well-being ([1]; 40 mg, Week 24): −13.26±16.316
change from baseline in EHP-30, pain ([1]; 40 mg, Week 24): −25.94±19.902
change from baseline in EHP-30, social support ([1]; 40 mg, Week 24): −10.28±17.109
change from baseline in mean B&B score, dysmenorrhea ([1]; 40 mg, Week 24): −2.0±0.61
change from baseline in mean B&B score, dyspareunia ([1]; 40 mg, Week 24): −0.1±0.43
change from baseline in mean B&B score, pelvic pain ([1]; 40 mg, Week 24): −1.0±0.86
change from baseline in mean B&B score, pelvic tenderness ([1]; 40 mg, Week 24): −1.0±0.92
subjects without pain in B&B score, dysmenorrhea ([1]; 40 mg, Week 24): 94.3%
subjects without pain in B&B score, pelvic pain ([1]; 40 mg, Week 24): 58.6%
change from baseline in proportion of days without dysmenorrhea (M-B&B) ([1]; 40 mg, end of 28 consecutive days): 73.98±29.567%
change from baseline in mean EHP-30 score [1, 2]: −25.94±19.902
change from baseline in mean M-B&B score, deep dyspareunia [1, 2]: −0.097±0.4325
change from baseline in mean M-B&B score, dysmenorrhea [1, 2]: −1.144±0.5014
change from baseline in mean M-B&B score, pelvic pain [1, 2]: −0.400±0.4491
change from baseline in proportion of days without deep dyspareunia (M-B&B) [1, 2]: 8.15±43.20%
change from baseline in proportion of days without dysmenorrhea (VAS) [1, 2]: 78.45±29.838%
change from baseline in proportion of days without pelvic pain (M-B&B) [1, 2]: 31.00±36.746%
change from baseline in proportion of days without pelvic pain (VAS) [1, 2]: 36.59±34.849%
subjects without dysmenorrhea (B&B) [1, 2]: 94.3%
subjects without dyspareunia (M-B&B) [1, 2]: 51.3%
change from baseline in maximum M-B&B score, dysmenorrhea ([1]; 40 mg, end of treatment): −2.0±0.76
change from baseline in maximum M-B&B score, dyspareunia ([1]; 40 mg, end of treatment): −0.1±0.54
change from baseline in maximum M-B&B score, pelvic pain ([1]; 40 mg, end of treatment): −1.0±0.89
change from baseline in maximum VAS, dysmenorrhea ([1]; 40 mg, end of treatment): −57.1±25.00 mm
change from baseline in maximum VAS, dyspareunia ([1]; 40 mg, end of treatment): −2.5±17.17 mm
change from baseline in maximum VAS, pelvic pain ([1]; 40 mg, end of treatment): −49.7±26.47 mm
change from baseline in mean M-B&B score, deep dyspareunia ([1]; 40 mg, end of treatment): −0.097±0.4325
change from baseline in mean M-B&B score, dysmenorrhea ([1]; 40 mg, end of treatment): −1.144±0.5014
change from baseline in mean M-B&B score, pelvic pain ([1]; 40 mg, end of treatment): −0.400±0.4491
change from baseline in mean VAS, dysmenorrhea ([1]; 40 mg, end of treatment): −29.513±17.5379 mm
change from baseline in mean VAS, dyspareunia ([1]; 40 mg, end of treatment): −0.925±12.0373 mm
change from baseline in mean VAS, pelvic pain ([1]; 40 mg, end of treatment): −11.924 mm and −11.924±11.2609 mm
change from baseline in mean score of amount of bleeding (0 to 5) ([1]; 40 mg, end of treatment): −2.207±0.8149
change from baseline in proportion of days with usage of pain killer ([1]; 40 mg, end of treatment): −9.95±14.214%
change in proportion of days without pain (M-B&B), deep dyspareunia ([1]; 40 mg, end of treatment): 8.15±43.207%
change in proportion of days without pain (M-B&B), dysmenorrhea ([1]; 40 mg, end of treatment): 73.98±29.567%
change in proportion of days without pain (M-B&B), pelvic pain ([1]; 40 mg, end of treatment): 31.00±36.746%
change in proportion of days without pain (VAS), dysmenorrhea ([1]; 40 mg, end of treatment): 78.45±29.838%
change in proportion of days without pain (VAS), dyspareunia ([1]; 40 mg, end of treatment): 4.50±40.796%
change in proportion of days without pain (VAS), pelvic pain ([1]; 40 mg, end of treatment): 36.59±34.849%
mean VAS score, dysmenorrhea ([1]; 40 mg, end of treatment): 0.918±4.3438 mm
mean VAS score, dyspareunia ([1]; 40 mg, end of treatment): 4.842±9.1145 mm
mean VAS score, pelvic pain ([1]; 40 mg, end of treatment): 3.335±6.4059 mm
subjects who achieved amenorrhea ([1]; 40 mg, end of treatment): 91.3%
subjects without pain in M-B&B score, dysmenorrhea ([1]; 40 mg, end of treatment): 93.2%
subjects without pain in M-B&B score, dyspareunia ([1]; 40 mg, end of treatment): 51.3%
subjects without pain in M-B&B score, pelvic pain ([1]; 40 mg, end of treatment): 52.4%
subjects without pain in VAS score, dysmenorrhea ([1]; 40 mg, end of treatment): 93.2%
subjects without pain in VAS score, dyspareunia ([1]; 40 mg, end of treatment): 48.7%
subjects without pain in VAS score, pelvic pain ([1]; 40 mg, end of treatment): 49.5% and 50%
CL/F (L/hr) | Mean (FIG. 6C): 739.7 L/h and 445.4 L/h
Vz/F (L) | Mean (FIG. 6C): 17932.0 L and 11042.3 L
